According to US10183032B2, “Methods for treating bacterial infection” (Ball State Innovation Corporation, priority 2012, dated 2019):

Experiments:
[1] = system: Staphylococcus aureus; experiment: Staphylococcus aureus host cell invasion assay in HUVEC, flow cytometry; assay type: cell-based; conditions: HUVEC; for Internalized bacteria (% control ± SEM), Structural analog: 10 μM in PEG, 18-20 hours prior to infection, fluorescently labeled S. aureus 1 hour; for activity at 10 µM: Staphylococcus aureus, 1 h, read-out: Internalized bacteria (% control ± SEM), Structural analog; for inhibition of invasion compared with ML 141 (Table 1): 10 μM, flow cytometry
Procedure: In one embodiment, human umbilical vein endothelial cells (HUVEC, Life Technologies) are cultured in M200 medium supplemented with LSGS. RAW 264.7 cells (American Type Culture Collection, ATCC, Manassas, Va.) are cultured in RPMI supplemented with 10% FBS and L-glutamine. All cell types are maintained at 5% CO2, 37° C., in 75 cm^2 vented cap flasks (Thermo-Fisher). For assays, cultured cells are plated at 1×10^5 cells/ml in 35 mm culture dishes coated with Attachment Factor. The next day, cells are pretreated in culture medium containing the vehicle control or ML 141. For compound delivery, ML 141 first is suspended into DMSO or into PEG at a concentration of 5 mM. The 5 mM solution is diluted to 1 mM in the solvent and then diluted to the final concentration for each experiment in either serum-containing or serum-free medium. For vehicle control treatment, the same volume of PEG or DMSO as that of ML 141 is added to medium. The following day, the invasion assay is performed. For the shorter duration experiments, compound is added on the same day as the invasion assay, 1 hour prior to bacteria.
In another embodiment, HUVEC (Millipore, Billerica, Mass.) are cultured in EndoGRO LS Complete Media (Millipore) and are maintained at 5% CO2, 37° C., in 75 cm^2 vented cap flasks (Thermo-Fisher). For the invasion assay, cultured cells are plated at 1×10^4 cells/ml in 96-well culture dishes coated with Attachment Factor. The next day, cells are pretreated in culture medium containing the vehicle control, ML 141, or ML 141 structural analog. For compound delivery, ML 141 and structural analogs first are suspended into PEG at a concentration of 5 mM. The 5 mM solution is diluted to 1 mM in the solvent and then is diluted to the final concentration for each experiment in serum containing medium. For vehicle control treatment, the same volume of PEG as that of ML 141 or of ML 141 structural analog is added to the medium. The following day, the invasion assay is performed. Bacteria are added directly to medium containing vehicle control, ML 141, or the ML 141 structural analog.
Two days prior to the assay, TSB is inoculated with S. aureus (American Type Culture Collection #29213) and incubated overnight (225 rpm, 37° C.). Bacteria are subcultured the next day into fresh TSB. On the day of the assay, bacteria are pelleted (10000×g, 37° C., 3 min), are washed in saline, are pelleted as above, are resuspended in saline, then fluorescently labeled by incubation with rabbit anti-mouse IgG Alexa Fluor 488 (final concentration 8 μg/ml, RT, 20 min). Protein A, a S. aureus cell surface protein, avidly binds IgG thereby labeling the bacteria. Labeled bacteria are washed twice as above and are resuspended to 3×10^8 CFU/ml in saline. Host cells are incubated with the bacteria for 1 hour (1.2×10^8 CFU/ml for same-day recovery, 5×10^6 for recovery after 48 hours, 1.4×10^7 CFU/ml; 5% CO2, 37° C.). Following infection, extracellular bacteria are removed by extensive washes with PBS and incubation of the host cells with antimicrobials that have limited mammalian membrane permeability (lysostaphin, 20 μg/ml and gentamicin, 50 μg/ml; 45 min for same-day recovery studies, 48 hours for 2-day recovery studies; 5% CO2, 37° C.). To detect the level of infection using flow cytometry, cells that have been infected with fluorescently-labeled bacteria are washed extensively with PBS, lifted from 96-well plate by incubation with trypsin, washed extensively in FACS buffer (2% BSA/0.1% sodium azide/PBS), fixed (FACS buffer containing 0.74% formaldehyde), and are counted using an Accuri flow cytometer (BD, Franklin Lakes, N.J.). They are also lifted from culture dishes using cell scrapers, pelleted, fixed (1% BSA/0.74% formaldehyde/PBS), and are counted using an Accuri flow cytometer. For enumeration of the infecting bacteria, intracellular bacteria are released from host cells using 1% saponin/PBS (20 min, 5% CO2, 37° C.) and serial dilutions are plated on TSA (16 hours, 37° C.). […]

[2] = target: CDC42 (Homo sapiens, UniProt P60953); experiment: BODIPY-FL-GTP binding to CDC42
Chain of CDC42 (P60953 whole entry): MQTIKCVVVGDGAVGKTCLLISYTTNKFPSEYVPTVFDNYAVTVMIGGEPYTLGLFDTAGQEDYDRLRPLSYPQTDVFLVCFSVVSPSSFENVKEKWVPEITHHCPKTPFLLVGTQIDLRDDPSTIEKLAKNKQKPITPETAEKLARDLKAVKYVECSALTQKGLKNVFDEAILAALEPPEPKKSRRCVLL

[3] = system: Staphylococcus aureus; experiment: Assessment of bactericidal activity (HUVEC media); assay type: cell-based; conditions: for CFU (×10^8 ± SEM), Compound (10 μM): 1.2 × 10^8 CFU S. aureus, 1 h in HUVEC media
Procedure: FIG. 6B illustrates that neither cytotoxicity nor bactericidal activity is detected. Cultures of Staphylococcus aureus that had been incubated with the vehicle control DMSO or with ML 141 (1 hour, 37° C., 225 rpm) were serially diluted, plated onto blood agar, and incubated (18 hours, 37° C.). Colonies were enumerated and colony forming units (CFU)/ml determined. CFU/ml were not different amongst the groups (p>0.05 by t-test; n=2/treatment). […]

[4] = system: Human umbilical vein endothelial cells; experiment: Cytotoxicity by propidium iodide exclusion, HUVEC; assay type: cell-based; conditions: for Mean fluorescence intensity (×10^4 ± SEM), Compound (10 μM): HUVEC pretreated 18-20 h; for Cytotoxicity (in words): 10 μM, 18-20 h, Tables 4 and 5
[5] = system: Staphylococcus aureus; experiment: Assessment of bactericidal activity (DMEM, 10% fetal bovine serum); assay type: cell-based; conditions: 3.2 × 10^6 CFU S. aureus, 1 h in DMEM with 10% fetal bovine serum; head prints 20 mM
[6] = system: RAW 264.7 cells; experiment: Cytotoxicity by propidium iodide, RAW 264.7 cells; assay type: cell-based; conditions: RAW 264.7 pretreated 18-20 h
[7] = system: Staphylococcus aureus; experiment: Intracellular bacteria per host cell (HUVEC), fluorescence microscopy; assay type: cell-based; conditions: 10 μmol/L, 18-20 h, 100 cells counted

Row | Compound | Internalized bacteria (% control ± SEM), Structural analog [1] [% % control] | CFU (×10^8 ± SEM), Compound (10 μM) [3] | Mean fluorescence intensity (×10^4 ± SEM), Compound (10 μM) [4] | CFU/mL (×10^9 ± SEM), Compound [5] | Mean fluorescence intensity (×10^3 ± SEM), Compound (10 μM) [6] | Intracellular bacteria/cell (±SEM), Structural analog [7] [bacteria/cell] | further results
1 | COCCOc1ccc(C2CC(c3ccccc3)=NN2c2ccc(S(N)(=O)=O)cc2)cc1 (stereo not shown) [RSM 11] | 61 ± 2 |  |  |  |  |  | 
2 | COc1ccc(C2C3Cc4ccccc4C3=NN2c2ccc(S(N)(=O)=O)cc2)cc1 (stereo not shown) [RSM 21] |  | 15.0 ± 1.1 ×10^8 CFU | 2.8 ± 0.09 ×10^4 |  |  |  | GTP binding (IC50) [2]: only slightly higher; IC50 [2]: 5.5 µM; activity at 10 µM [1]: 79 ± 3%
3 | COc1ccc(C2CC(c3cccc(NC(C)=O)c3)=NN2c2ccc(S(N)(=O)=O)cc2)cc1 (stereo not shown) [RSM 30] |  |  |  | 1.5 ± 0.02 ×10^9 CFU/mL | 2.4 ± 0.4 ×10^3 | 1.7 ± 0.3 | 
4 | COCCOc1ccc(C2CC(c3ccc(OC)cc3)=NN2c2ccc(S(N)(=O)=O)cc2)cc1 (stereo not shown) [RSM 12] | 57 ± 3 |  |  |  |  |  | 
5 | COc1ccc(C2C(C)C(c3ccccc3)=NN2c2ccc(S(N)(=O)=O)cc2)cc1 (stereo not shown) [RSM 19] |  | 9.4 ± 1.0 ×10^8 CFU | 2.6 ± 0.01 ×10^4 |  |  |  | IC50 [2]: 13.5 µM; activity at 10 µM [1]: 61 ± 2%
6 | COc1ccc(C2=NN(c3ccc(S(N)(=O)=O)cc3)C(c3ccc(Cl)cc3)C2)cc1 (stereo not shown) [RSM 04] | 11 ± 1 | 3.8 ± 0.8 ×10^8 CFU | 4.6 ± 0.2 ×10^4 |  |  |  | Cytotoxicity (in words) [4]: cytotoxic; inhibition of invasion compared with ML 141 (Table 1) [1]: inhibited invasion more than ML 141
7 | COc1cc(C2CC(c3ccccc3)=NN2c2ccc(S(N)(=O)=O)cc2)cc(OC)c1OC (stereo not shown) [RSM 13] | 62 ± 5 |  |  |  |  |  | 
8 | CCC(=O)Nc1cccc(C2=NN(c3ccc(S(N)(=O)=O)cc3)C(c3ccc(OC)cc3)C2)c1 (stereo not shown) [RSM 33] |  |  |  | 1.3 ± 0.04 ×10^9 CFU/mL | 2.9 ± 1.1 ×10^3 | 5.4 ± 0.4 | 
9 | CCC(=O)Nc1ccc(C2=NN(c3ccc(S(N)(=O)=O)cc3)C(c3ccc(OC)cc3)C2)cc1 (stereo not shown) [RSM 32] |  |  |  | 2.4 ± 0.3 ×10^9 CFU/mL | 2.8 ± 1.1 ×10^3 | 5.5 ± 0.4 | 
10 | COCCOc1ccc(C2=NN(c3ccc(S(N)(=O)=O)cc3)C(c3ccc(OCCOC)cc3)C2)cc1 (stereo not shown) [RSM 18] | 76 ± 7 |  |  |  |  |  | 
11 | COCCOc1ccc(C2=NN(c3ccc(S(N)(=O)=O)cc3)C(c3ccc(Cl)cc3)C2)cc1 (stereo not shown) [RSM 20] |  | 10.0 ± 0.2 ×10^8 CFU | 2.1 ± 0.2 ×10^4 |  |  |  | IC50 [2]: 46.5 µM; activity at 10 µM [1]: 61 ± 4%
12 | COCCOc1ccc(C2=NN(c3ccc(S(N)(=O)=O)cc3)C(c3ccc(OC)cc3)C2)cc1 (stereo not shown) [RSM 17] | 67 ± 8 |  |  |  |  |  | 
13 | COc1ccc(C2CC(c3ccc(NC(C)=O)cc3)=NN2c2ccc(S(N)(=O)=O)cc2)cc1 (stereo not shown) [RSM 31] |  |  |  | 0.9 ± 0.09 ×10^9 CFU/mL | 2.4 ± 0.3 ×10^3 | 1.4 ± 0.4 | 
14 | COc1ccc(C2=NN(c3ccc(S(N)(=O)=O)cc3)C(c3cc(OC)c(OC)c(OC)c3)C2)cc1 (stereo not shown) [RSM 14] | 71 ± 3 |  |  |  |  |  | 
15 | CN(C)c1ccc(C2CC(c3ccccc3)=NN2c2ccc(S(N)(=O)=O)cc2)cc1 (stereo not shown) [RSM 28] |  |  |  | 1.8 ± 0.05 ×10^9 CFU/mL | 11 ± 2.0 ×10^3 | 1.4 ± 0.3 | 
16 | COc1ccc(C2=NN(c3ccc(S(N)(=O)=O)cc3)C(c3ccccc3)C2)cc1 (stereo not shown) [RSM 07] |  | 11.5 ± 1.1 ×10^8 CFU | 2.5 ± 0.4 ×10^4 |  |  |  | GTP binding (IC50) [2]: only slightly higher; IC50 [2]: 6.2 µM; activity at 10 µM [1]: 34 ± 2%
17 | COc1ccc(C2(C)CC(c3ccccc3)=NN2c2ccc(S(N)(=O)=O)cc2)cc1 (stereo not shown) [RSM 26] | 40 ± 3 | 0.8 ± 1.1 ×10^8 CFU | 26.8 ± 2.1 ×10^4 |  |  |  | Bactericidal activity (in words) ([3]; S. aureus incubated 1 h with compound, FIG. 6B, Tables 6 and 7): bactericidal; Cytotoxicity (in words) [4]: cytotoxic
18 | COc1ccc(CCC(=NNc2ccc(S(N)(=O)=O)cc2)c2ccccc2)cc1 [RSM 27] |  |  |  | 2.4 ± 0.6 ×10^9 CFU/mL | 1.0 ± 0.1 ×10^3 | 4.4 ± 0.5 | 
19 | NS(=O)(=O)c1ccc(N2N=C(c3ccccc3)CC2c2ccc3c(c2)OCO3)cc1 (stereo not shown) [RSM 05] |  | 8.0 ± 1.7 ×10^8 CFU | 3.9 ± 0.2 ×10^4 |  |  |  | IC50 [2]: 3.4 µM; activity at 10 µM [1]: 38 ± 3%
20 | CC(=O)Nc1ccc(C2CC(c3ccccc3)=NN2c2ccc(S(N)(=O)=O)cc2)cc1 (stereo not shown) [RSM 29] |  |  |  | 1.4 ± 0.1 ×10^9 CFU/mL | 4.2 ± 0.3 ×10^3 | 2.4 ± 0.4 | 
21 | COc1ccc(C2CC(c3ccccc3)=NN2c2ccc(S(N)(=O)=O)cc2)cc1OC (stereo not shown) [RSM 15] |  | 10.1 ± 1.0 ×10^8 CFU | 4.0 ± 0.4 ×10^4 |  |  |  | IC50 [2]: 2.2 µM; inhibition of invasion compared with ML 141 (Table 1) [1]: inhibited invasion more than ML 141; activity at 10 µM [1]: 45 ± 1%
